Measurements taken from US6632981B1, “DNA sequences encoding polypeptides having beta-1,3-glucanase activity” (Novartis Finance Corporation, priority 1988, dated 2003).

Key:
chimeric PR-1a/GUS gene [1] = assay: Chemical induction of chimeric PR-1a/GUS gene in transgenic tobacco plants, β-glucuronidase assay of leaf extracts; type: in vivo, Nicotiana tabacum
Protocol: A. Gene expression is induced in plants obtained according to previously described procedures by applying a fine spray of a solution of 0.1 to 50 mM salicylic acid which has been adjusted to a pH between 6.0 and 8.0 with NaOH, to the leaves using a plant mister.
The plants are allowed to continue to grow for two days and are then harvested, frozen in liquid nitrogen and stored at −80° C. until they are assayed as described in Example 65 and/or Example 66.
B. Alternatively, the following solutions are used for induction:
(3) Methyl benzo-1,2,3-thiadiazole-7-carboxylate. The solution is made by resuspending a wettable powder containing the chemical in sterile water for several minutes at a concentration of 1 mg/ml. Insoluble solid is removed from the solution by filter sterilizing.
Frozen leaf tissue is ground in a mortar with a pestle in the presence of liquid nitrogen to produce a fine powder. Leaf extracts are prepared by mixing a given weight (g) with an equal volume (ml) of GUS extraction buffer (50 mM sodium phosphate buffer pH 7.0, 0.1% Triton-X 100, 0.1% sarkosyl, 10 mM β-mercaptoethanol) as described by Jefferson, R. A. et al., Proc. Natl. Acad. Sci. USA 83: 8447-8451 (1986).
(§1) The reactions are carried out in the wells of ELISA plates by mixing 5-25 l extract with 120-100 l GUS assay buffer (50 mM sodium phosphate buffer pH 7.0, 0.1% Triton X-100, 10 mM β-mercaptoethanol) containing 4-methyl umbelliferyl glucuronide (MU) at a final concentration of 2 mM in a total volume of 125 l. The plate is incubated at 37° C. for 1-5 hours and the reaction is stopped by the addition of 150 l 3 M Na2CO3. The concentration of fluorescent indicator released is determined by reading the plate on a Flow Labs Fluoroskan II ELISA plate reader.

chimeric PR-1a/GUS gene [2] = assay: GUS induction in transformed tomato callus; type: cell-based; details: 250 g/l spray, 21 hours
Protocol: Agrobacterium strains containing the appropriate vectors as described above (e.g. CIB270, CIB271, CIB272, CIB273, pCIB271×15955, pCIB271 X A208, pCIB271 X A281, pCIB271 X A4, pCIB272 X 15955, pCIB272 X A208, pCIB272 X A281, pCIB272 X A4, pCIB273 X 15955, pCIB273 X A208, pCIB273 X A281, and pCIB273 X A4) are grown as described in Example 112. The bacteria, diluted to an OD600 of 0.2-0.4, are then used for inoculation of stems of tomato seedlings prepared as described below.
Tomato seeds are soaked 20 min in 10% chlorox and rinsed with sterile water. […]
After one week the inoculated stems are cut and placed on 0.7% agar containing MS salts, 3% sucrose, […] 6-benzylaminopurine, 100 µg/ml carbenicillin, 100 µg/ml mefoxim, and 50 µg/ml kanamycin. […] The callus is transferred to fresh media every two weeks until sufficient quantity is obtained for 4 plates. […]
as §1, with “The plate is incubated at 37° C. for 1-5 hours and the reaction is stopped by the addition of 150 l 3 M Na2CO3.” left out

[3] = tobacco plant Alu 1 (CIB272), water 5.6, buffer 20.5
[4] = tobacco plant Alu 2 (CIB272), water 2.0, buffer 8.9
[5] = tobacco plant Alu 3 (CIB272), water 0.1, buffer 2.0
[6] = tobacco plant Alu 4 (CIB272), water 2.1, buffer 6.1
[7] = tobacco plant Alu 5 (CIB272), water 0.6, buffer 0.5
[8] = tobacco plant Alu 6 (CIB272), water 0.8, buffer 3.1
[9] = tobacco plant Alu 7 (CIB272), water 1.7, buffer 21.7
[10] = tobacco plant Alu 8 (CIB272), water 0.6, buffer 0.6
[11] = tobacco plant Alu 9 (CIB272), water 0.9, buffer 0.3
[12] = tobacco plant Alu 10 (CIB272), water 4.0, buffer 8.1
[13] = tobacco plant Alu 11 (CIB272), water 1.6, buffer 2.2
[14] = tobacco plant Alu 12 (CIB272), water 0.7, buffer 2.3
[15] = tobacco plant Alu 13 (CIB272), water 0.1, buffer 1.9
[16] = tobacco plant H 1 (CIB271), water 5.39, buffer 20.1
[17] = tobacco plant H 3 (CIB271), water 0.21, buffer 1.66
[18] = tobacco plant H 4 (CIB271), water 8.39, buffer 2.28
[19] = tobacco plant H 6 (CIB271), water 0.10, buffer 0.09
[20] = tobacco plant H 9 (CIB271), water 0.23, buffer 0.5
[21] = tobacco plant Hae 1 (CIB273), water 0.6, buffer 1.7
[22] = tobacco plant Hae 2 (CIB273), water 2.3, buffer 0.4
[23] = tobacco plant Hae 3 (CIB273), water 1.7, buffer 3.0
[24] = tobacco plant Hae 4 (CIB273), water 2.0, buffer 1.7
[25] = tobacco plant Hae 5 (CIB273), water 18.1, buffer 36.6
[26] = tobacco plant Hae 8 (CIB273), water 0.4, buffer 0.6
[27] = tobacco plant Hae 9 (CIB273), water 2.6, buffer 12.5
[28] = tobacco plant Hae 10 (CIB273), water 1.6, buffer 13.5
[29] = tobacco plant Hae 11 (CIB273), water 2.6, buffer 3.9
[30] = tobacco plant Hae 12 (CIB273), water 0.2, buffer 0.6
[31] = tobacco plant Hae 13 (CIB273), water 0.01, buffer nd
[32] = tobacco plant Hae 14 (CIB273), water 0.1, buffer 0.1
[33] = tobacco plant Hae 15 (CIB273), water 0.1, buffer 3.4
[34] = tobacco plant Hae 16 (CIB273), water 0.1, buffer 0.8

Row | Structure (SMILES) | Specific Activity nKat MU/mg protein (chimeric PR-1a/GUS gene [1]; [3]) [nKat MU/mg protein] | Specific Activity nKat MU/mg protein (chimeric PR-1a/GUS gene [1]; [4]) [nKat MU/mg protein] | Specific Activity nKat MU/mg protein (chimeric PR-1a/GUS gene [1]; [5]) | Specific Activity nKat MU/mg protein (chimeric PR-1a/GUS gene [1]; [6]) [nKat MU/mg protein] | Specific Activity nKat MU/mg protein (chimeric PR-1a/GUS gene [1]; [7]) | Specific Activity nKat MU/mg protein (chimeric PR-1a/GUS gene [1]; [8]) [nKat MU/mg protein] | Specific Activity nKat MU/mg protein (chimeric PR-1a/GUS gene [1]; [9]) [nKat MU/mg protein] | Specific Activity nKat MU/mg protein (chimeric PR-1a/GUS gene [1]; [10]) [nKat MU/mg protein] | Specific Activity nKat MU/mg protein (chimeric PR-1a/GUS gene [1]; [11]) [nKat MU/mg protein] | Specific Activity nKat MU/mg protein (chimeric PR-1a/GUS gene [1]; [12]) [nKat MU/mg protein] | Specific Activity nKat MU/mg protein (chimeric PR-1a/GUS gene [1]; [13]) | Specific Activity nKat MU/mg protein (chimeric PR-1a/GUS gene [1]; [14]) [nKat MU/mg protein] | Specific Activity nKat MU/mg protein (chimeric PR-1a/GUS gene [1]; [15]) [nKat MU/mg protein] | Specific Activity nKat MU/mg protein (chimeric PR-1a/GUS gene [1]; [16]) [nKat MU/mg protein] | Specific Activity nKat MU/mg protein (chimeric PR-1a/GUS gene [1]; [17]) [nKat MU/mg protein] | Specific Activity nKat MU/mg protein (chimeric PR-1a/GUS gene [1]; [18]) [nKat MU/mg protein] | Specific Activity nKat MU/mg protein (chimeric PR-1a/GUS gene [1]; [19]) | Specific Activity nKat MU/mg protein (chimeric PR-1a/GUS gene [1]; [20]) [nKat MU/mg protein] | Specific Activity nKat MU/mg protein (chimeric PR-1a/GUS gene [1]; [21]) [nKat MU/mg protein] | Specific Activity nKat MU/mg protein (chimeric PR-1a/GUS gene [1]; [22]) [nKat MU/mg protein] | also measured
1 | O=C(O)c1ccccc1O [Salicylic acid, salicylic acid] | 20.0 | 6.6 | 2.8 ± .9 nKat MU/mg protein | 43.0 ± 19 | 4.4 ± 2.3 nKat MU/mg protein | 28.8 | 38.7 | 0.4 | 0.6 | 39.2 | 1.9 ± .9 nKat MU/mg protein | 57.1 ± 22 | 19.1 | 13.9 ± 1.2 | 6.92 ± 0.88 | 27.5 ± 0.7 | 4.08 ± 0.58 nKat MU/mg protein | 10.8 | 1.6 | 8.8 | Specific Activity nKat MU/mg protein (chimeric PR-1a/GUS gene [1]; [23]): 11.1 nKat MU/mg protein; Specific Activity nKat MU/mg protein (chimeric PR-1a/GUS gene [1]; [24]): 8.1 nKat MU/mg protein; Specific Activity nKat MU/mg protein (chimeric PR-1a/GUS gene [1]; [25]): 59.4 nKat MU/mg protein; Specific Activity nKat MU/mg protein (chimeric PR-1a/GUS gene [1]; [26]): 30.6 nKat MU/mg protein; Specific Activity nKat MU/mg protein (chimeric PR-1a/GUS gene [1]; [27]): 63.9 nKat MU/mg protein; Specific Activity nKat MU/mg protein (chimeric PR-1a/GUS gene [1]; [28]): 70.5 nKat MU/mg protein; Specific Activity nKat MU/mg protein (chimeric PR-1a/GUS gene [1]; [29]): 81.8 nKat MU/mg protein; Specific Activity nKat MU/mg protein (chimeric PR-1a/GUS gene [1]; [30]): 2.5 nKat MU/mg protein; Specific Activity nKat MU/mg protein (chimeric PR-1a/GUS gene [1]; [31]): 0.7 nKat MU/mg protein; Specific Activity nKat MU/mg protein (chimeric PR-1a/GUS gene [1]; [32]): 1.8 nKat MU/mg protein; Specific Activity nKat MU/mg protein (chimeric PR-1a/GUS gene [1]; [33]): 6.4 nKat MU/mg protein; Specific Activity nKat MU/mg protein (chimeric PR-1a/GUS gene [1]; [34]): 2.3 nKat MU/mg protein
2 | COC(=O)c1cccc2nnsc12 [Methyl benzo-1,2,3-thiadiazole-7-carboxylate] | 206.9 | 83.2 | 2.0 ± .9 nKat MU/mg protein | 7.1 ± 2.6 | 1.2 ± .6 nKat MU/mg protein | 67.0 | 29.1 | 0.4 | 0.4 | 52.0 | 2.8 ± 1.3 nKat MU/mg protein | 73.4 | 13.2 | 13.5 ± 0.8 | 11.95 ± 0.85 | 18.52 ± 1.07 | 2.58 ± .01 nKat MU/mg protein | 9.1 | 2.6 | 11.8 | GUS activities (chimeric PR-1a/GUS gene [2]; tomato callus transformed with CIB271, H2O spray 17.2): 56.1 pKat MU/mg protein; GUS activities (chimeric PR-1a/GUS gene [2]; tomato callus transformed with CIB273 X A4, H2O spray 4.6): 22.1 pKat MU/mg protein; Specific Activity nKat MU/mg protein (chimeric PR-1a/GUS gene [1]; [23]): 11.2 nKat MU/mg protein; Specific Activity nKat MU/mg protein (chimeric PR-1a/GUS gene [1]; [24]): 10.8 nKat MU/mg protein; Specific Activity nKat MU/mg protein (chimeric PR-1a/GUS gene [1]; [25]): 132.5 nKat MU/mg protein; Specific Activity nKat MU/mg protein (chimeric PR-1a/GUS gene [1]; [26]): 28.9 nKat MU/mg protein; Specific Activity nKat MU/mg protein (chimeric PR-1a/GUS gene [1]; [27]): 129.7 nKat MU/mg protein; Specific Activity nKat MU/mg protein (chimeric PR-1a/GUS gene [1]; [28]): 98.2 nKat MU/mg protein; Specific Activity nKat MU/mg protein (chimeric PR-1a/GUS gene [1]; [29]): 58.5 nKat MU/mg protein; Specific Activity nKat MU/mg protein (chimeric PR-1a/GUS gene [1]; [30]): 5.8 nKat MU/mg protein; Specific Activity nKat MU/mg protein (chimeric PR-1a/GUS gene [1]; [31]): 0.1 nKat MU/mg protein; Specific Activity nKat MU/mg protein (chimeric PR-1a/GUS gene [1]; [32]): 8.6 nKat MU/mg protein; Specific Activity nKat MU/mg protein (chimeric PR-1a/GUS gene [1]; [33]): 7.2 nKat MU/mg protein; Specific Activity nKat MU/mg protein (chimeric PR-1a/GUS gene [1]; [34]): 4.3 nKat MU/mg protein
